Earlier results on 1 compound are cited in PubChem BioAssay AID1259410 (Chemical Carcinogenesis Research Information System (CCRIS), 2018).

The structures appear in SMILES notation.

The series deals with rodent tumor promotion studies, tumor incidence. Put plainly: CCRIS tumor promotion studies.

As for `Clc1cc2c(cc1Cl)Oc1cc(Cl)c(Cl)cc1O2`, the outcome runs as follows: (Carcinogen: 7,12-DIMETHYLBENZ(A)ANTHRACENE, Doses [Carcinogen]: 0.2 UMOL, Route [Carcinogen]: DERMAL, Route [Promoter]: DERMAL, Species: MOUSE, Strain/Sex: HRS/FEMALE) “integumentary system (skin): papilloma”; (Carcinogen: DIETHYLNITROSAMINE [55-18-5], Doses [Carcinogen]: 175 MG/KG BW ONCE AT 10 WK OF AGE (STUDY DURATION: 32 WK), Doses [Promoter]: 1750 NG/KG IN CORN OIL 1X/2 WK FOR 14 WK BEGINNING 18 WK POST CARCINOGEN DOSE (STUDY DURATION: 32 WK), Route [Carcinogen]: INTRAPERITONEAL, Route [Promoter]: GAVAGE, Species: RAT, Strain/Sex: SPRAGUE-DAWLEY/FEMALE) “ovary: tumor”; (Carcinogen: DIETHYLNITROSAMINE [55-18-5], Doses [Carcinogen]: 175 MG/KG BW ONCE AT 10 WK OF AGE (STUDY DURATION: 32 WK), Doses [Promoter]: 1750 NG/KG IN CORN OIL 1X/2 WK FOR 30 WK BEGINNING 2 WK POST CARCINOGEN DOSE (STUDY DURATION: 32 WK), Route [Carcinogen]: INTRAPERITONEAL, Route [Promoter]: GAVAGE, Species: RAT, Strain/Sex: SPRAGUE-DAWLEY/FEMALE) “ovary: tumor”; (Carcinogen: DIETHYLNITROSAMINE [55-18-5], Doses [Carcinogen]: 175 MG/KG BW ONCE AT 10 WK OF AGE (STUDY DURATION: 48 WK), Doses [Promoter]: 1750 NG/KG IN CORN OIL 1X/2 WK FOR 30 WK BEGINNING 2 WK POST CARCINOGEN DOSE (STUDY DURATION: 48 WK), Route [Carcinogen]: INTRAPERITONEAL, Route [Promoter]: GAVAGE, Species: RAT, Strain/Sex: SPRAGUE-DAWLEY/FEMALE) “ovary: tumor”; (Carcinogen: DIETHYLNITROSAMINE [55-18-5], Doses [Carcinogen]: 175 MG/KG BW ONCE AT 10 WK OF AGE (STUDY DURATION: 48 WK), Doses [Promoter]: 1750 NG/KG IN CORN OIL 1X/2 WK FOR 30 WK BEGINNING 18 WK POST CARCINOGEN DOSE (STUDY DURATION: 48 WK), Route [Carcinogen]: INTRAPERITONEAL, Route [Promoter]: GAVAGE, Species: RAT, Strain/Sex: SPRAGUE-DAWLEY/FEMALE) “ovary: tumor”; (Carcinogen: DIETHYLNITROSAMINE [55-18-5], Doses [Carcinogen]: 175 MG/KG BW ONCE AT 10 WK OF AGE (STUDY DURATION: 54 WK), Doses [Promoter]: 1750 NG/KG IN CORN OIL 1X/2 WK FOR 30 WK BEGINNING 18 WK POST CARCINOGEN DOSE (STUDY DURATION: 54 WK), Route [Carcinogen]: INTRAPERITONEAL, Route [Promoter]: GAVAGE, Species: RAT, Strain/Sex: SPRAGUE-DAWLEY/FEMALE) “ovary: tumor”. The outcome by setting is: (Carcinogen: DIETHYLNITROSAMINE [55-18-5], Doses [Carcinogen]: 175 MG/KG BW ONCE AT 10 WK OF AGE (STUDY DURATION: 62 WK), Doses [Promoter]: 1750 NG/KG IN CORN OIL 1X/2 WK FOR 30 WK BEGINNING 2 WK POST CARCINOGEN DOSE (STUDY DURATION: 62 WK), Route [Carcinogen]: INTRAPERITONEAL, Route [Promoter]: GAVAGE, Species: RAT, Strain/Sex: SPRAGUE-DAWLEY/FEMALE) “ovary: tumor”; (Carcinogen: DIETHYLNITROSAMINE [55-18-5], Doses [Carcinogen]: 175 MG/KG BW ONCE AT 10 WK OF AGE (STUDY DURATION: 62 WK), Doses [Promoter]: 1750 NG/KG IN CORN OIL 1X/2 WK FOR 60 WK BEGINNING 2 WK POST CARCINOGEN DOSE (STUDY DURATION: 62 WK), Route [Carcinogen]: INTRAPERITONEAL, Route [Promoter]: GAVAGE, Species: RAT, Strain/Sex: SPRAGUE-DAWLEY/FEMALE) “ovary: tumor”; (Carcinogen: DIETHYLNITROSAMINE, 55-18-5, Doses [Carcinogen]: 10 MG/KG ONCE, Doses [Promoter]: 0, 150 PPT IN DIET FOR DURATION OF STUDY BEGINNING 30 D POST CARCINOGEN DOSE (STUDY DURATION: 450 D), Route [Carcinogen]: INTRAPERITONEAL, Route [Promoter]: ORAL, Species: RAT, Strain/Sex: SPRAGUE-DAWLEY/FEMALE) “liver: adenoma or carcinoma”; (Carcinogen: DIETHYLNITROSAMINE, 55-18-5, Doses [Carcinogen]: 90 MG/KG BW ONCE, Doses [Promoter]: 0, 0.5 UG/KG 1/WK FOR 20 WK BEGINNING 3 WK POST CARCINOGEN DOSE (STUDY DURATION: 47 WK), Route [Carcinogen]: INTRAPERITONEAL, Route [Promoter]: INTRAPERITONEAL, Species: MOUSE, Strain/Sex: B6D2F1/MALE) “liver: tumor”; (Carcinogen: N-NITROSODIMETHYLAMINE, 62-75-7, Doses [Carcinogen]: 25 MG/KG ONCE AT 5 WK OF AGE, Doses [Promoter]: 0, 0.05 UG/KG/WK FOR 20 WK BEGINNING 3 WK POST CARCINOGEN DOSE (STUDY DURATION: 52 WK), Route [Carcinogen]: INTRAPERITONEAL, Route [Promoter]: INTRAPERITONEAL, Species: MOUSE, Strain/Sex: SWISS/MALE) “lung: tumor”; (Carcinogen: N-NITROSODIMETHYLAMINE, 62-75-7, Doses [Carcinogen]: 25 MG/KG ONCE AT 5 WK OF AGE, Doses [Promoter]: 0, 1.6 UG/KG ONCE 3 WK POST CARCINOGEN DOSE (STUDY DURATION: 52 WK), Route [Carcinogen]: INTRAPERITONEAL, Route [Promoter]: INTRAPERITONEAL, Species: MOUSE, Strain/Sex: SWISS/MALE) “lung: tumor”. Besides, the outcome (Doses [Carcinogen]: 5 UMOL IN 50 µL ACETONE, Doses [Promoter]: 3.75, 7.5, 15, 30 NG 2/WK, Doses [Promoter]: 3.75, 7.5, 15, 30 NG 2/WK, Route [Carcinogen]: DERMAL, Route [Promoter]: DERMAL, Species: MOUSE, Strain/Sex: HRS/FEMALE) was “integumentary system (skin): papilloma”.
